Values of other authors as cited in US11000479B2, “Injectable long-acting naltrexone microparticle compositions” (Chong Kun Dang Pharmaceutical Corp., priority 2018, dated 2021).

Key:
[1] = system: heroin/diamorphine effects
[2] = system: morphine induced analgesia; conditions: rat model, hot-plate test

SMILES: O=C1CC[C@@]2(O)[C@H]3Cc4ccc(O)c5c4[C@@]2(CCN3CC2CC2)[C@H]1O5 [naltrexone]
- naltrexone level that completely antagonized heroin ([1]; 25 mg of heroin (Verebey et al. 1976)): 2.4 ng/mL
- levels targeted as sufficient to offer protection from fatal opioid overdose ([1]; Hulse et al. 2005, Comer et al. 2002): 1 to 2 ng/mL
- serum naltrexone level sufficient to block pure diamorphine ([1]; doses as high as 500 mg diamorphine, two patients (Brewer 2002)): 2.8 ng/mL
- plasma naltrexone concentration shown to be effective [2]: 1 to 2 ng/mL
